According to BindingDB's records for doi:10.1016/j.bmcl.2011.10.035 (Sepuluh Nopember Institute of Technology, 2011):

Each compound was assayed against Aldo-keto reductase family 1 member B1 (Homo sapiens, UniProt P15121) (assay: Inhibition of recombinant human aldose reductase using dl-glyceraldehyde as substrate after 10 mins by spectrophotometry).

| IC50 | SMILES |
| --- | --- |
| > 193 µM | CC(CC(=O)C[C@@H](C)[C@H]1CC(=O)[C@@]2(C)C3C(=O)C[C@H]4C(C)(C)[C@@H](O)CC[C@]4(C)C3C(=O)C(=O)[C@]12C)C(=O)O (stereo partly drawn) |
| > 188 µM | CC(CC(=O)C[C@@H](C)[C@H]1CC(=O)[C@@]2(C)C3C(C(=O)C(=O)[C@]12C)[C@@]1(C)CC[C@H](O)C(C)(C)[C@@H]1C[C@@H]3O)C(=O)O (stereo partly drawn) |

| SMILES | IC50 |
| --- | --- |
| CC(=CC(=O)CC(C)C(=O)O)[C@H]1CC(=O)[C@@]2(C)C3=C(C(=O)C[C@]12C)[C@@]1(C)CCC(=O)C(C)(C)[C@@H]1C[C@@H]3O (stereo partly drawn) | > 195 µM |
